Data set [1] addresses human µ receptor wild‐type (WT) (Homo sapiens, UniProt P35372). Description: cell-based. Format: cell-based.
A further data set addresses human µ receptor A6V (Homo sapiens, UniProt P35372, A6V). Description: cell-based. Type of data set: cell-based.
Data set [2] deals with noradrenaline transporter. The following applies: read-out: EC50 to inhibit noradrenaline transporter; LC neurons; cited from earlier work.
For data set [3] the following is noted: tapentadol‐related fatality; cited from earlier work.
In another data set the test system is GIRK channels. The following applies: 100 µM; cells clamped at −60 mV; cited from earlier work.
The next data set concerns the target T1, GIRK1/2 channel (Mus musculus, UniProt P48542+P63250).
T1 sequence (P63250 1-501): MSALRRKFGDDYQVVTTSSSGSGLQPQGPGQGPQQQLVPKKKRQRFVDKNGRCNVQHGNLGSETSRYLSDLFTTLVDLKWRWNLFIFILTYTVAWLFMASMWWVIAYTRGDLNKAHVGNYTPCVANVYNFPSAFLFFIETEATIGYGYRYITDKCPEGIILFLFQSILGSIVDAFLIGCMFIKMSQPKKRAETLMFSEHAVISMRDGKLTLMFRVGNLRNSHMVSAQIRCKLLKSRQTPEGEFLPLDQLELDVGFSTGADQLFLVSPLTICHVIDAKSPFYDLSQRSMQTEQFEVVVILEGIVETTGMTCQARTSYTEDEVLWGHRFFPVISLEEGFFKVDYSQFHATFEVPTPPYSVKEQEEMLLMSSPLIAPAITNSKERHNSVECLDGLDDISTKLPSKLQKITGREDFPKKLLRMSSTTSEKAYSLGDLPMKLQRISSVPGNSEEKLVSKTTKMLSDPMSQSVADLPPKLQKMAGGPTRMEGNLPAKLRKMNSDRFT
T1 sequence (P48542 1-425): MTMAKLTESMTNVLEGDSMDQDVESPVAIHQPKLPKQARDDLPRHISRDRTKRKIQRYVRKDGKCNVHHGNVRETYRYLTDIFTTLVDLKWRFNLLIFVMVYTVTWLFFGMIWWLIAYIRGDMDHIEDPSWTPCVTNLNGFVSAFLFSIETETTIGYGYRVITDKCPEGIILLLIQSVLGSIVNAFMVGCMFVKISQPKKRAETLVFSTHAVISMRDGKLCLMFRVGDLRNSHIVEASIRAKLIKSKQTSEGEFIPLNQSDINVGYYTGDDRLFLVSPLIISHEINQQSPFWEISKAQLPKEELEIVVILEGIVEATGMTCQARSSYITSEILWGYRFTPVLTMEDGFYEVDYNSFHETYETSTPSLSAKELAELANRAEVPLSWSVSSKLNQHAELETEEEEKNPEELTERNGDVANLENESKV
Format: cell-based. The following applies: 30 µM tapentadol, AtT20 WT cells.

A further data set has as its system OPRM1 knock‐out mice. The following applies: dose highly effective in wild‐type mouse; cited from earlier work.
For the next data set, the system named is Somatostatin receptors. Type of data set: cell-based, Mouse. The following applies: 30 µM tapentadol; SRIF 100 nM; AtT20 WT cells.
In another data set the test system is human µ receptor. The following applies: GTPγS binding; cited from earlier work. (In general: GTPγS is a poorly hydrolysed GTP analogue; its binding reports G protein activation.)
For a further data set, the target named is human µ receptor N40D (Homo sapiens, UniProt P35372, N40D). Description: cell-based. Format: cell-based.
In data set [4] the test system is rat µ receptor. The following applies: cited from earlier work.
Data set [5] concerns rat µ receptor. The following applies: cited from earlier work. The source holds these as a separate data set.

This is an account of results in article PMC8929351 (Pharmacology Research & Perspectives, 2022).

SMILES strings stand for the structures. “Also recorded” adds a separate entry of the source.

Sequence of human µ receptor wild‐type (WT) (P35372 whole entry): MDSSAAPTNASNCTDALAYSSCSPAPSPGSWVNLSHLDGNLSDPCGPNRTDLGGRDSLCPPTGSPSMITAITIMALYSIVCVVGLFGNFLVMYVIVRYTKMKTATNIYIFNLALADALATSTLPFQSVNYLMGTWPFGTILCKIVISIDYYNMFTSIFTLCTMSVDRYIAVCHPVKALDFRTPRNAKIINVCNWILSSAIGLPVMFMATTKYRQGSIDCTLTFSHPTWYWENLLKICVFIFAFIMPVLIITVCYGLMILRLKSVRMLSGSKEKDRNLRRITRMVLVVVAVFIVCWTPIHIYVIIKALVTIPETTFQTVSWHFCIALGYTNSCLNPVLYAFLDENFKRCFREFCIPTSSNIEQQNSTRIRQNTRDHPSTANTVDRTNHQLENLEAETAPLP
Sequence of human µ receptor N40D (P35372 whole entry N40D): as the sequence (P35372 whole entry) above, with N40D counted along it
Sequence of human µ receptor A6V (P35372 whole entry A6V): as the sequence (P35372 whole entry) above, with A6V counted along it

What is called Kd is the free concentration of one partner at which half of the binding sites on the other are occupied at equilibrium, for simple one-to-one binding. Read a low Kd as a tighter complex. One may read the EC50 as the concentration giving half of the maximal effect. On to `CC[C@@H](c1cccc(O)c1)[C@@H](C)CN(C)C` [Tapentadol], for which the “response at the highest concentration compared with plateau” value in data set [1] (30 µM, undepleted conditions) is “smaller response”. Moreover, the “Relative tau (intrinsic efficacy relative to DAMGO)” value in data set [1] (WT, AtT20 cells, operational model, β‐CNA 100 nM 20 min, mean ± SEM) was found to be 0.05 ± 0.01; on human µ receptor A6V (A6V, AtT20 cells, operational model, β‐CNA 100 nM 20 min, mean ± SEM), 0.04 ± 0.01; at human µ receptor N40D (N40D, AtT20 cells, operational model, β‐CNA 100 nM 20 min, mean ± SEM), 0.05 ± 0.02. The Kd in data set [1] (pKA, WT, operational (functional) affinity) is 3.98 µM; at human µ receptor A6V, 4.47 µM; on human µ receptor N40D, 3.98 µM. The EC50 is 2.3 µM in data set [2] and 1.8 µM at rat µ receptor [4] (read-out: EC50 to activate µ receptor, LC neurons). In [3], the serum concentration was 3.5 to 25 µM. The “blockage of GIRK channels” value with GIRK channels is on record as “no blockage of GIRK channels”. For the same compound, on GIRK1/2 channel, the “effect on response of ML297” value is “significant reduction; also recorded: decreased the maximal response”. In the data set on OPRM1 knock‐out mice, the analgesic effect entry is reported as “reduced yet significant analgesia”. Moreover, the “effect on response of SRIF” value in the data set on Somatostatin receptors is reported as “significant reduction; also recorded: decreased the maximal response”. In addition, the in vitro efficacy entry with human µ receptor is recorded as “same efficacy as morphine”. Moreover, in the data set with rat µ receptor [4] (GIRK currents, rat LC neurons), the intrinsic activity entry was “lower intrinsic activity than morphine and oxycodone”.

As to `C[C@@H](NC(=O)[C@@H](N)Cc1ccc(O)cc1)C(=O)NCC(=O)N(C)[C@@H](Cc1ccccc1)C(=O)NCCO` [DAMGO, Tyr‐D‐Ala‐Gly‐N‐MePhe‐Gly‐ol acetate], the “effect to activate the GIRK channel in variants compared to WT” value in data set [1] is “not different”. Also, the Operational tau in the data set with rat µ receptor [5] is 28.5 ± 1.1.

On to `COc1ccc2c3c1O[C@H]1C(=O)CC[C@@]4(O)[C@@H](C2)N(C)CC[C@]314` [Oxycodone], for which the results for the Operational tau (in [1]; with rat µ receptor [5]) were 13.9 ± 2 and 5.1 ± 0.2, respectively.
